Measured values as given in ChEMBL document CHEMBL1153552, “Comparative in vitro pharmacodynamics of caspofungin, micafungin, and anidulafungin against germinated and nongerminated Aspergillus conidia” (2008).
Activity calls are given as the source filed them. The rule behind the calls is not given here.

Tests used:
Aspergillus fumigatus [1] = experiment: Antifungal activity against nongerminated Aspergillus fumigatus assessed as lowest drug concentration that produced short, stubby and highly branched hyphae after 48 hrs by microscopic analysis; format: functional; settings: read-out: MEC
Aspergillus fumigatus [2] = experiment: Antifungal activity against germinated Aspergillus fumigatus assessed as lowest drug concentration that produced short, stubby and highly branched hyphae after 48 hrs by microscopic analysis; format: functional; settings: read-out: MEC
Aspergillus fumigatus [3] = experiment: Ratio of log2 of MEC for germinated Aspergillus fumigatus to log2 of MEC for nongerminated Aspergillus fumigatus; format: functional
Aspergillus terreus [4] = experiment: Antifungal activity against nongerminated Aspergillus terreus assessed as lowest drug concentration that produced short, stubby and highly branched hyphae after 48 hrs by microscopic analysis; format: functional; settings: read-out: MEC
Aspergillus terreus [5] = experiment: Antifungal activity against germinated Aspergillus terreus assessed as lowest drug concentration that produced short, stubby and highly branched hyphae after 48 hrs by microscopic analysis; format: functional; settings: read-out: MEC
Aspergillus terreus [6] = experiment: Ratio of log2 of MEC for germinated Aspergillus terreus to log2 of MEC for nongerminated Aspergillus terreus; format: functional
Aspergillus flavus [7] = experiment: Antifungal activity against nongerminated Aspergillus flavus assessed as lowest drug concentration that produced short, stubby and highly branched hyphae after 48 hrs by microscopic analysis; format: functional; settings: read-out: MEC
Aspergillus flavus [8] = experiment: Antifungal activity against germinated Aspergillus flavus assessed as lowest drug concentration that produced short, stubby and highly branched hyphae after 48 hrs by microscopic analysis; format: functional; settings: read-out: MEC
Aspergillus flavus [9] = experiment: Ratio of log2 of MEC for germinated Aspergillus flavus to log2 of MEC for nongerminated Aspergillus flavus; format: functional
Aspergillus fumigatus [10] = experiment: Effect on nongerminated Aspergillus fumigatus metabolic activity assessed as drug concentration at which fungal metabolic activity occurs after 2 hrs by XTT assay; format: functional
Aspergillus fumigatus [11] = experiment: Effect on germinated Aspergillus fumigatus metabolic activity assessed as drug concentration at which fungal metabolic activity occurs after 2 hrs by XTT assay; format: functional
Aspergillus fumigatus [12] = experiment: Effect on Aspergillus fumigatus metabolic activity assessed number of twofold drug dilutions required for germinated fungal metabolic activity to nongerminated fungal metabolic activity; format: functional
Aspergillus terreus [13] = experiment: Effect on nongerminated Aspergillus terreus metabolic activity assessed as drug concentration at which fungal metabolic activity occurs after 2 hrs by XTT assay; format: functional
Aspergillus terreus [14] = experiment: Effect on germinated Aspergillus terreus metabolic activity assessed as drug concentration at which fungal metabolic activity occurs after 2 hrs by XTT assay; format: functional
Aspergillus terreus [15] = experiment: Effect on Aspergillus terreus metabolic activity assessed number of twofold drug dilutions required for germinated fungal metabolic activity to nongerminated fungal metabolic activity; format: functional
Aspergillus flavus [16] = experiment: Effect on nongerminated Aspergillus flavus metabolic activity assessed as drug concentration at which fungal metabolic activity occurs after 2 hrs by XTT assay; format: functional
Aspergillus flavus [17] = experiment: Effect on germinated Aspergillus flavus metabolic activity assessed as drug concentration at which fungal metabolic activity occurs after 2 hrs by XTT assay; format: functional
Aspergillus flavus [18] = experiment: Effect on Aspergillus flavus metabolic activity assessed number of twofold drug dilutions required for germinated fungal metabolic activity to nongerminated fungal metabolic activity; format: functional
Aspergillus fumigatus [19] = experiment: Induction of maximal metabolic inhibition in nongerminated Aspergillus fumigatus assessed as minimal metabolic activity Ymin after 2 hrs by XTT assay; format: functional; design: scale not given: the % may be the effect or the level left
Aspergillus fumigatus [20] = experiment: Induction of maximal metabolic inhibition in germinated Aspergillus fumigatus assessed as minimal metabolic activity Ymin after 2 hrs by XTT assay; format: functional; design: scale not given: the % may be the effect or the level left
Aspergillus terreus [21] = experiment: Induction of maximal metabolic inhibition in nongerminated Aspergillus terreus assessed as minimal metabolic activity Ymin after 2 hrs by XTT assay; format: functional; design: scale not given: the % may be the effect or the level left
Aspergillus terreus [22] = experiment: Induction of maximal metabolic inhibition in germinated Aspergillus terreus assessed as minimal metabolic activity Ymin after 2 hrs by XTT assay; format: functional; design: scale not given: the % may be the effect or the level left
Aspergillus flavus [23] = experiment: Induction of maximal metabolic inhibition in nongerminated Aspergillus flavus assessed as minimal metabolic activity Ymin after 2 hrs by XTT assay; format: functional; design: scale not given: the % may be the effect or the level left
Aspergillus flavus [24] = experiment: Induction of maximal metabolic inhibition in germinated Aspergillus flavus assessed as minimal metabolic activity Ymin after 2 hrs by XTT assay; format: functional; design: scale not given: the % may be the effect or the level left
Aspergillus fumigatus [25] = experiment: Decrease in nongerminated Aspergillus fumigatus metabolism assessed as metabolic activity at 64 ug/mL after 48 hrs by XTT assay; format: functional; design: scale not given: the % may be the effect or the level left
Aspergillus fumigatus [26] = experiment: Decrease in germinated Aspergillus fumigatus metabolism assessed as metabolic activity at 64 ug/mL after 48 hrs by XTT assay; format: functional; design: scale not given: the % may be the effect or the level left
Aspergillus terreus [27] = experiment: Decrease in nongerminated Aspergillus terreus metabolism assessed as metabolic activity at 64 ug/mL after 48 hrs by XTT assay; format: functional; design: scale not given: the % may be the effect or the level left
Aspergillus terreus [28] = experiment: Decrease in germinated Aspergillus terreus metabolism assessed as metabolic activity at 64 ug/mL after 48 hrs by XTT assay; format: functional; design: scale not given: the % may be the effect or the level left
Aspergillus flavus [29] = experiment: Decrease in nongerminated Aspergillus flavus metabolism assessed as metabolic activity at 64 ug/mL after 48 hrs by XTT assay; format: functional; design: scale not given: the % may be the effect or the level left
Aspergillus flavus [30] = experiment: Decrease in germinated Aspergillus flavus metabolism assessed as metabolic activity at 64 ug/mL after 48 hrs by XTT assay; format: functional; design: scale not given: the % may be the effect or the level left
Aspergillus fumigatus [31] = experiment: Decrease in nongerminated Aspergillus fumigatus metabolism assessed as metabolic activity at 128 ug/mL after 48 hrs by XTT assay; format: functional; design: scale not given: the % may be the effect or the level left
Aspergillus fumigatus [32] = experiment: Decrease in germinated Aspergillus fumigatus metabolism assessed as metabolic activity at 128 ug/mL after 48 hrs by XTT assay; format: functional; design: scale not given: the % may be the effect or the level left
Aspergillus terreus [33] = experiment: Decrease in nongerminated Aspergillus terreus metabolism assessed as metabolic activity at 128 ug/mL after 48 hrs by XTT assay; format: functional; design: scale not given: the % may be the effect or the level left
Aspergillus terreus [34] = experiment: Decrease in germinated Aspergillus terreus metabolism assessed as metabolic activity at 128 ug/mL after 48 hrs by XTT assay; format: functional; design: scale not given: the % may be the effect or the level left
Aspergillus flavus [35] = experiment: Decrease in nongerminated Aspergillus flavus metabolism assessed as metabolic activity at 128 ug/mL after 48 hrs by XTT assay; format: functional; design: scale not given: the % may be the effect or the level left
Aspergillus flavus [36] = experiment: Decrease in germinated Aspergillus flavus metabolism assessed as metabolic activity at 128 ug/mL after 48 hrs by XTT assay; format: functional; design: scale not given: the % may be the effect or the level left
Aspergillus fumigatus [37] = experiment: Antifungal activity against nongerminated Aspergillus fumigatus assessed as absence of visual fungal growth at 128 ug/mL; format: functional, organism-based
Aspergillus fumigatus [38] = experiment: Antifungal activity against germinated Aspergillus fumigatus assessed as absence of visual fungal growth at 128 ug/mL; format: functional, organism-based
Aspergillus terreus [39] = experiment: Antifungal activity against nongerminated Aspergillus terreus assessed as absence of visual fungal growth at 128 ug/mL; format: functional, organism-based
Aspergillus terreus [40] = experiment: Antifungal activity against germinated Aspergillus terreus assessed as absence of visual fungal growth at 128 ug/mL; format: functional, organism-based
Aspergillus flavus [41] = experiment: Antifungal activity against nongerminated Aspergillus flavus assessed as absence of visual fungal growth at 128 ug/mL; format: functional, organism-based
Aspergillus flavus [42] = experiment: Antifungal activity against germinated Aspergillus flavus assessed as absence of visual fungal growth at 128 ug/mL; format: functional, organism-based

CC[C@H](C)C[C@H](C)CCCCCCCCC(=O)N[C@H]1C[C@@H](O)[C@@H](NCCN)NC(=O)[C@@H]2[C@@H](O)CCN2C(=O)[C@H]([C@H](O)CCN)NC(=O)[C@H]([C@H](O)[C@@H](O)c2ccc(O)cc2)NC(=O)[C@@H]2C[C@@H](O)CN2C(=O)[C@H]([C@@H](C)O)NC1=O [CASPOFUNGIN]
minimal effective concentration (Aspergillus fumigatus [1]): 1 µg/mL | minimal effective concentration (Aspergillus fumigatus [2]): 1 µg/mL | Ratio (Aspergillus fumigatus [3]): 0 | minimal effective concentration (Aspergillus terreus [4]): 0.5 µg/mL | minimal effective concentration (Aspergillus terreus [5]): 1 µg/mL | Ratio (Aspergillus terreus [6]): 1 | minimal effective concentration (Aspergillus flavus [7]): 1 µg/mL | minimal effective concentration (Aspergillus flavus [8]): 1 µg/mL | Ratio (Aspergillus flavus [9]): 0 | EC5 (Aspergillus fumigatus [10]): 0.67 µg/mL | EC5 (Aspergillus fumigatus [11]): 1.2 µg/mL | Ratio (Aspergillus fumigatus [12]): 0.96 | EC5 (Aspergillus terreus [13]): 0.65 µg/mL | EC5 (Aspergillus terreus [14]): 1.06 µg/mL | Ratio (Aspergillus terreus [15]): 1.12 | EC5 (Aspergillus flavus [16]): 0.64 µg/mL | EC5 (Aspergillus flavus [17]): 0.87 µg/mL | Ratio (Aspergillus flavus [18]): 0.43 | Activity (Aspergillus fumigatus [19]): 26% | Activity (Aspergillus fumigatus [20]): 26% | Activity (Aspergillus terreus [21]): 34% | Activity (Aspergillus terreus [22]): 35% | Activity (Aspergillus flavus [23]): 17% | Activity (Aspergillus flavus [24]): 21% | Activity (Aspergillus fumigatus [25]): <5% | Activity (Aspergillus fumigatus [26]): <5% | Activity (Aspergillus terreus [27]): <5% | Activity (Aspergillus terreus [28]): <5% | Activity (Aspergillus flavus [29]): <5% | Activity (Aspergillus flavus [30]): <5% | Activity (Aspergillus fumigatus [31]): <5% | Activity (Aspergillus fumigatus [32]): <5% | Activity (Aspergillus terreus [33]): <5% | Activity (Aspergillus terreus [34]): <5% | Activity (Aspergillus flavus [35]): <5% | Activity (Aspergillus flavus [36]): <5% | Activity (Aspergillus fumigatus [37]): Active | Activity (Aspergillus fumigatus [38]): Active | Activity (Aspergillus terreus [39]): Active | Activity (Aspergillus terreus [40]): Active | Activity (Aspergillus flavus [41]): Active | Activity (Aspergillus flavus [42]): Active
